Tested on: CYP3A
Type: in vitro ADME

Structure (SMILES): CCCCCCCCCCCCCCCCOCCCOP(=O)(O)COC(CO)Cn1ccc(N)nc1=O (stereo not shown) [HDP-CDV]
- inhibition of CYP3A activity in vitro: moderate inhibitor
